Nine compounds from ChEMBL document CHEMBL1128997, “Synthesis and antitumor activity of a new class of water soluble camptothecin derivatives” (Bioorg Med Chem Lett, 1996) can be followed below.

Experiment [1] addresses T1, DNA topoisomerase 1 (Homo sapiens, UniProt P11387).
T1 sequence (P11387 whole entry): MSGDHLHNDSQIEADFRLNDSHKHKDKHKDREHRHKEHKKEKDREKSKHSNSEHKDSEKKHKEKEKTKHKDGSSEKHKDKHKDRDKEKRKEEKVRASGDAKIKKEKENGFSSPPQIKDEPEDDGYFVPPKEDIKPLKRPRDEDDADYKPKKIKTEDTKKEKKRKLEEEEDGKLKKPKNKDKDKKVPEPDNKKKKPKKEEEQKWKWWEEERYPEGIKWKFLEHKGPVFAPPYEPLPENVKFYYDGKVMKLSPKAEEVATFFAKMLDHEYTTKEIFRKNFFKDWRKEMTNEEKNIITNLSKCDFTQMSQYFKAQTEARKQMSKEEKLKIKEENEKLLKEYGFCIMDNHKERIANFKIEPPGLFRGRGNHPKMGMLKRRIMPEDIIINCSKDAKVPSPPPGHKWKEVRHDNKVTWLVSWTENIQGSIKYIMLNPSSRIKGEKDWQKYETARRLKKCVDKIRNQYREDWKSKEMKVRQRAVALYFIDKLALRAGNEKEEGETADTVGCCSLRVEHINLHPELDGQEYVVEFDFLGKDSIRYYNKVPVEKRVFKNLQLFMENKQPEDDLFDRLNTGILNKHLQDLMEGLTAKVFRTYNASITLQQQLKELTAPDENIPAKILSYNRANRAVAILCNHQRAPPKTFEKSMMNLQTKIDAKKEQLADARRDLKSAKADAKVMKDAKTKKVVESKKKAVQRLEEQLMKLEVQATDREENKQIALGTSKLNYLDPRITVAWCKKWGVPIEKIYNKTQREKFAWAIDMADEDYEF
The experiment can be described thus: Compound was tested in vitro for inhibition of topoisomerase I.

Experiment [2] concerns L1210. The experiment can be described thus: Compound was tested in vitro for cytotoxicity against L1210 murine leukemia cells. Type of experiment: functional, cell-based. Conditions: Mus musculus.
The subject of experiment [3] is Mus musculus. In words: Activity against L1210 ascitic leukemia expressed as ratio of the median survival time of treated mice to that of untreated control X 100 after ip administration at a optimal dose of 10 mg/Kg. Type of experiment: functional.
In experiment [4] the test system is Mus musculus. The experiment can be described thus: Activity against L1210 ascitic leukemia expressed as ratio of the median survival time of treated mice to that of untreated control X 100 after iv administration at a optimal dose of 15 mg/Kg. Type of experiment: functional.
Experiment [5] deals with Mus musculus. The experiment can be described thus: Activity against L1210 ascitic leukemia expressed as ratio of the median survival time of treated mice to that of untreated control X 100 after ip administration at a optimal dose of 15 mg/Kg. The format is functional.
For experiment [6], the system named is Mus musculus. The experiment can be described thus: Activity against L1210 ascitic leukemia expressed as ratio of the median survival time of treated mice to that of untreated control X 100 after iv administration at a optimal dose of 20 mg/Kg. Type of experiment: functional.
Experiment [7] concerns Mus musculus. In words: Activity against L1210 ascitic leukemia expressed as ratio of the median survival time of treated mice to that of untreated control X 100 after ip administration at a optimal dose of 1.5 mg/Kg. The format is functional.
In experiment [8] the test system is Mus musculus. In words: Activity against L1210 ascitic leukemia expressed as ratio of the median survival time of treated mice to that of untreated control X 100 after iv administration at a optimal dose of 2.5 mg/Kg. Type of experiment: functional.

Usually IC50 stands for the concentration at which inhibition is half-maximal. A high value points to a need for much substance. For orientation: T/C means the result in the treated group divided by that in the control group, in per cent.

For the compound `CCc1c2c(nc3cccc(/N=C/N(C)C)c13)-c1cc3c(c(=O)n1C2)COC(=O)[C@]3(O)CC`, the results for the IC50 in experiment [1] and in experiment [2] were 3600 nM and 52.4 nM, respectively.

As for `CC[C@@]1(O)C(=O)OCc2c1cc1n(c2=O)Cc2cc3c(/N=C/N4CCOCC4)cccc3nc2-1`, the half-maximal inhibitory concentration (IC50) in experiment [1] worked out at 69000 nM; in experiment [2], 125 nM.

With `CC[C@@]1(O)C(=O)OCc2c1cc1n(c2=O)Cc2cc3c(N/C=N/C)cccc3nc2-1.Cl`, the T/C in experiment [3] is reported as 169%; in experiment [4], 167%. The IC50 in experiment [1] was 6600 nM; in experiment [2], 52 nM.

On to `CC[C@@]1(O)C(=O)OCc2c1cc1n(c2=O)Cc2cc3c(NC=N)cccc3nc2-1.Cl`, for which the concentration for half-maximal inhibition (IC50) worked out at 20400 nM in experiment [1] and 92.5 nM in experiment [2]. Further, the T/C is recorded as 219% in experiment [5] and 143% in experiment [4].

For the compound `CC[C@@]1(O)C(=O)OCc2c1cc1n(c2=O)Cc2cc3c(/N=C/N(C)C)cccc3nc2-1.Cl`, the T/C in experiment [6] was 200%; in experiment [5], 175%. Further, the values for the 50% inhibitory concentration (IC50) in experiment [1] and in experiment [2] were 19200 nM and 108 nM, respectively.

Turning to `CC[C@@]1(O)C(=O)OCc2c1cc1n(c2=O)Cc2cc3c(/N=C/N(C)c4ccccc4)cccc3nc2-1`, the IC50 in experiment [1] worked out at 2200 nM; in experiment [2] it was 28.1 nM.

As to `CC[C@@]1(O)C(=O)OCc2c1cc1n(c2=O)Cc2cc3cc(/N=C/N(C)C)ccc3nc2-1`, the IC50 in experiment [1] is 42000 nM; in experiment [2] it was 94.5 nM.

Take `CC[C@@]1(O)C(=O)OCc2c1cc1n(c2=O)Cc2cc3c(/N=C(\C)N(C)C)cccc3nc2-1`: the IC50 in experiment [1] stood at 3500 nM; in experiment [2], 689 nM.

With `CC[C@@]1(O)C(=O)OCc2c1cc1n(c2=O)Cc2cc3c(N)cccc3nc2-1` [9-AMINOCAMPTOTHECIN], the half-maximal inhibitory concentration (IC50) in experiment [1] is 4200 nM; in experiment [2], 12.7 nM. Further, the T/C was found to be 163% in experiment [7] and 138% in experiment [8].
